# According to ChEMBL document CHEMBL1147017, “Synthesis and antiproliferative activity of two new tiazofurin analogues with 2'-amido functionalities” (Bioorg Med Chem Lett, 2006):
# Columns and labels:
# Assay type in all cases: functional, cell-based
# MCF7 = test: Antiproliferative activity against human MCF7 cell line
# HT-29 = test: Antiproliferative activity against human HT29 cell line
# HeLa = test: Antiproliferative activity against human HeLa cell line
# MRC5 = test: Antiproliferative activity against human MRC5 cell line
# HL-60 = test: Antiproliferative activity against human HL60 cell line
# K562 = test: Antiproliferative activity against human K562 cell line
Compound,IC50 (MCF7) [µM],IC50 (HT-29) [µM],IC50 (HeLa) [µM],IC50 (MRC5) [µM],IC50 (HL-60) [µM],IC50 (K562) [µM]
CCCCCCCCCCCC(=O)N[C@@H]1[C@H](O)[C@@H](CO)O[C@H]1c1nc(C(N)=O)cs1,> 100,0.011,3.22,> 100,4.82,35.6
NC(=O)c1csc([C@@H]2O[C@H](CO)[C@@H](O)[C@H]2O)n1 [TIAZOFURIN],7.98,–,–,–,–,–
CCCCCC(=O)N[C@@H]1[C@H](O)[C@@H](CO)O[C@H]1c1nc(C(N)=O)cs1,0.014,> 100,8.75,> 100,> 100,> 100
